The record followed here is patent US11497701B2, “Multi-functional anti-microbial polymers and compositions containing same” (priority 2015, dated 2022).

One series relates to Aspergillus fumigatus. Put plainly: Antifungal susceptibility disc test (rings of inhibition). In kind it is cell-based. The note with it: disc on Sabouraud plate, 18-24 hrs at 35° C.; polymers 100 μg per disc, Amphotericin B 20 μg; NI = No Inhibition. The protocol:
(§1) Each polymer was applied to sterile filter paper discs as a solution (15 mg of compound in 3 mL of solvent). Each disc received 20 μL of solution, and was allowed to dry, giving a final concentration of 100 μg of compound per disc. Adapted from Messer et al., (2007), this protocol was used to test novel compounds for antifungal properties against yeasts and fungi. Compounds were tested for antifungal activity against pure cultures of Saccharomyces cerevisiae, Candida albicans supplied by Ward's Natural Science Ltd. and Aspergillus niger and Aspergillus fumigatus supplied by […]. (Inverness Medical, Ottawa, Ontario, Canada). All cultures were maintained on Sabouraud agar. […] The cultures of A. niger and A. fumigatus were transferred, using an inoculation loop, to new Sabouraud agar and grown for 48 hrs. at 27° C., and 35° C. respectively, to cause sporulation. Triplicates of all the plates and broth cultures were made in case of error or contamination. Using a sterile swab, and aseptic techniques, the cell suspension of S. cerevisiae, and C. albicans were transferred to Sabouraud agar plates and spread evenly, ensuring that the entire surface was inoculated. They were then left to dry for 10 minutes. From the plates containing A. niger and A. fumigatus two small circles containing fungal growth of the A Niger or A Fumigatus fungi were cut from the agar plates, and using a glass/PTFE tissue homogenizer, were mixed and homogenized with 5 ml of sterile MilliQ water to create a suspension of fungal spores. Using a sterile swab, and aseptic techniques, the spore inocula of A. niger and A. fumigatus were transferred to Sabouraud agar plates and spread evenly, ensuring that the entire surface was inoculated. They were then left to dry for 10 minutes. Amphotericin B (20 μg) premade discs were used as a control. Three antibiotic discs containing different compounds were place equidistant apart on each Sabouraud plate. Each compound had three replicates per species. Plates containing S. cerevisiae, and C. albicans were incubated for 18-24 hrs at 37° C., A. niger for 48 hrs at room temperature, and A. fumigatus for 18-24 hrs at 35° C. […] If clear rings of inhibition were present, the diameter was measured twice using a caliper. Halos indicated partial inhibition of growth (Hicks et al., 2008).

The subject of the next series is Aspergillus niger. Described as above. In kind it is cell-based. The note with it: disc on Sabouraud plate, 48 hrs at room temperature; polymers 100 μg per disc, Amphotericin B 20 μg; NI = No Inhibition. The protocol:
as §1

Another series has as its system Candida albicans. The description is as above. In kind it is cell-based. The note with it: disc on Sabouraud plate, 18-24 hrs at 37° C.; polymers 100 μg per disc, Amphotericin B 20 μg; NI = No Inhibition. The protocol:
as §1

In a further series the test system is Saccharomyces cerevisiae. Described as above. The note with it: disc on Sabouraud plate, 18-24 hrs at 37° C.; polymers 100 μg per disc, Amphotericin B 20 μg; NI = No Inhibition. In kind it is cell-based. As to the method: as §1
Another series concerns Bacillus cereus. In words: Antibacterial susceptibility disc test (rings of inhibition). The note with it: disc on Mueller-Hinton plate, 18-24 hrs at 37° C.; polymers 100 μg per disc, control discs at given load; NI = No Inhibition. In kind it is cell-based. As to the method: (§2) Compounds were tested for antibacterial activity, as described in Ma et al. (2011), against pure cultures of Escherichia coli, Pseudomonas aeruginosa, Bacillus cereus, Proteus mirabilis/hauseri, and Staphylococcus aureus, supplied by Ward's Natural Science Ltd. (St. Catherines, Ontario, Canada). All cultures were maintained on Tryptic Soy agar. These cultures were then transferred using an inoculation loop to 10 mL of Tryptic soy broth, and grown at 37° C. for 24 hours. Triplicates of plate and broth cultures were made in case of error or contamination. Using a sterile swab, and aseptic techniques, the bacterial broth inocula were transferred to Mueller-Hinton plates and spread evenly, ensuring that the entire surface was inoculated. They were then left to dry for 3-5 minutes. The following control discs were used: Penicillin (10 μg), Tetracycline (30 μg), Chloramphenicol (30 μg), and Ampicillin (10 μg). Four antibiotic discs containing different compounds were placed equidistant from each other on a Mueller-Hinton plate. Each compound had three replicates per species. Plates were incubated for 18-24 hrs at 37° C., and then observed for rings of inhibition. If clear rings of inhibition were present, the diameter was measured twice using a caliper. […] Each polymer was applied to sterile filter paper discs as a solution (15 mg of compound in 3 mL of solvent). Each disc received 20 μL of solution, and was allowed to dry, giving a final concentration of 100 μg of compound per disc.

Series [1] deals with Proteus mirabilis/hauseri. The series is described as above. In kind it is cell-based. The note with it: disc on Mueller-Hinton plate, 18-24 hrs at 37° C.; polymers 100 μg per disc, control discs at given load; NI = No Inhibition. The protocol:
as §2

In the next series the test system is Pseudomonas aeruginosa. The description is as above. The note with it: disc on Mueller-Hinton plate, 18-24 hrs at 37° C.; polymers 100 μg per disc, control discs at given load; NI = No Inhibition. In kind it is cell-based. As to the method: as §2
The next series concerns Staphylococcus aureus. The series is described as above. In kind it is cell-based. The note with it: disc on Mueller-Hinton plate, 18-24 hrs at 37° C.; polymers 100 μg per disc, control discs at given load; NI = No Inhibition. The protocol: as §2
A further series concerns Escherichia coli. The description is as above. Also noted: unit not given here. In kind it is cell-based. The note with it: NI = No Inhibition; for diameter of ring of inhibition, E. coli (Table 5): all 10 μg; for diameter of ring of inhibition, E. coli: disc on Mueller-Hinton plate, 18-24 hrs at 37° C., polymers 100 μg per disc, control discs at given load. As to the method:
as §2

A short description of series [2]: Viscosity measurements (Brookfield Synchrolectric viscometer model LVF). In kind it is physicochemical. The note with it: 1% weight solution in distilled water, pH 7 and 25° C. As to the method:
The values in centi-poise (mPa·s, m=milli) were calculated as per the specifications set out by the instrument manufacturer.
The viscosity of the compositions described in Example 5, were also similarly measured, as well as 1% wt. solutions of pure BAC and hp-AETA.

For the compound `C[C@@H]1[C@H](O)[C@@H](C)/C=C/C=C/C=C/C=C/C=C/C=C/C=C/[C@H](O[C@@H]2O[C@H](C)[C@@H](O)[C@H](N)[C@@H]2O)C[C@@H]2O[C@](O)(C[C@@H](O)C[C@@H](O)[C@H](O)CC[C@@H](O)C[C@@H](O)CC(=O)O[C@H]1C)C[C@H](O)[C@H]2C(=O)O` [Amphotericin B], the “diameter of ring of inhibition, A. fumigatus” value in the series with Aspergillus fumigatus is recorded as 12.5. The “diameter of ring of inhibition, A. niger” value in the series with Aspergillus niger was determined as 15.5. Also, in the series on Candida albicans, the “diameter of ring of inhibition, C. albicans” value came out at 13.6. Further, the “diameter of ring of inhibition, S. cerevisiae” value in the series on Saccharomyces cerevisiae is reported as 8.39.

With `CC1(C)S[C@@H]2[C@H](NC(=O)[C@H](N)c3ccccc3)C(=O)N2[C@H]1C(=O)O` [Ampicillin], the “diameter of ring of inhibition, B. cereus” value in the series with Bacillus cereus amounted to 13.5. Besides, the “diameter of ring of inhibition, P. hauseri” value in series [1] is listed as 11. In addition, the “diameter of ring of inhibition, P. aeruginosa” value in the series on Pseudomonas aeruginosa turned out to be 10.2. For the same compound, the “diameter of ring of inhibition, S. aureus” value in the series with Staphylococcus aureus is listed as 40.4. In the series with Escherichia coli, the “diameter of ring of inhibition, E. coli (Table 5)” value turned out to be 15.4 and the “diameter of ring of inhibition, E. coli” value turned out to be 15.0.

In the case of `O=C(N[C@H](CO)[C@H](O)c1ccc([N+](=O)[O-])cc1)C(Cl)Cl` [Chloramphenicol], in the series with Bacillus cereus, the “diameter of ring of inhibition, B. cereus” value was 26.3. Besides, the “diameter of ring of inhibition, P. hauseri” value in series [1] amounted to 14.4. In the series with Pseudomonas aeruginosa, the “diameter of ring of inhibition, P. aeruginosa” value is 21.5. Also, the “diameter of ring of inhibition, S. aureus” value in the series on Staphylococcus aureus is on record as 24.1. In the series with Escherichia coli, the “diameter of ring of inhibition, E. coli (Table 5)” value came to 17.4 and the “diameter of ring of inhibition, E. coli” value is 19.4.

Turning to `CN(C)[C@@H]1C(O)=C(C(N)=O)C(=O)[C@@]2(O)C(O)=C3C(=O)c4c(O)cccc4[C@@](C)(O)[C@H]3C[C@@H]12` [Tetracycline], in the series on Bacillus cereus, the “diameter of ring of inhibition, B. cereus” value amounted to 20.3. The “diameter of ring of inhibition, P. hauseri” value in [1] amounted to 13.7. Moreover, in the series on Pseudomonas aeruginosa, the “diameter of ring of inhibition, P. aeruginosa” value is reported as 9.9. In addition, the “diameter of ring of inhibition, S. aureus” value in the series on Staphylococcus aureus amounted to 24.7. Also, in the series on Escherichia coli, the “diameter of ring of inhibition, E. coli (Table 5)” value was 25.3 and the “diameter of ring of inhibition, E. coli” value stood at 20.4.

With Benzalkonium chloride [BAC], the viscosity in [2] turned out to be 3.1 mPa·s.

Penicillin: the “diameter of ring of inhibition, P. hauseri” value in [1] is reported as 19. Moreover, the “diameter of ring of inhibition, P. aeruginosa” value in the series with Pseudomonas aeruginosa was determined as 7.0. The “diameter of ring of inhibition, S. aureus” value in the series on Staphylococcus aureus was 43.8. Moreover, in the series on Escherichia coli, the “diameter of ring of inhibition, E. coli (Table 5)” value turned out to be 19.5 and the “diameter of ring of inhibition, E. coli” value is given as 19.5.

As usually defined, the viscosity is the internal friction of a fluid under shear.
